The values below come from paper PMC7611208 (Clinical cancer research : an official journal of the …, 2019).

The target of this test is T1, UCHL1 (Homo sapiens, UniProt P09936).
T1 sequence (P09936 1-220): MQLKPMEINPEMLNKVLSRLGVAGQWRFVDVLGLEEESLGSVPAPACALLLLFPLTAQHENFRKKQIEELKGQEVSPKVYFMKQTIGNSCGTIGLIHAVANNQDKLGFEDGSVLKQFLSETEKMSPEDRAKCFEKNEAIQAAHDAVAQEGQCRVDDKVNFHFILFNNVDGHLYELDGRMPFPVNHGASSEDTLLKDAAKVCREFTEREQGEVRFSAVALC
In words: in vitro DUB IC50 assay. The test is classed as biochemical.

For `N#CN1CC[C@H](C(=O)Nc2ncc(N3CCOCC3)s2)C1` [6RK73], the half-inhibitory concentration (IC50) (in general, the concentration needed to halve the response being measured) was 230 nM. This lies in the sub-micromolar range.
